Experimental data published in US20210213010A1, “TLR7/8 AGONISTS AND LIPOSOME COMPOSITIONS” (Torque Therapeutics, Inc., priority 2018, published 2021).
“Also recorded” adds a separate entry of the source.

How the values were obtained:
[1] = Remote loading efficiency of small molecules into liposomes (PD-10 size exclusion, HPLC); assay type: physicochemical
Description: A solution of the small molecule (modified TLR agonist) was lyophilized in a vial equipped with a magnetic stir bar over night to form a fluffy white powder. This powder was added either formulation F1 or F2 to the wanted drug/lipid ratio. The resulting mixture was stirred at 55° C. or 41° C. for formulation F1 and F2 respectively for 3h, then allowed to cool to rt before the solutions were refrigerated and stored at 4° C.
Remote loading efficiency was determined at 1 h and 3 h by taking out 100 μL of the mixture and applying this and 900 μL buffer (25 mM HEPES, 10 vol % sucrose buffer, pH 7.4) to a PD-10 column size exclusion column. Following, 10×1 mL fractions were collected, and the small molecule compound concentrations in the loading mixture and in the liposome containing fractions were determined on analytical HPLC. Loading efficiency was calculated as percentage of molecules found in liposome containing fractions out of the applied amount. The general procedure for the small molecule remote loading is visualized in FIG. 3. The general concept of remote loading imidazoquinolines in liposomes that are dialyzed against HEPES is visualized in FIG. 4.

whole human blood [2] = test: IL-6 cytokine expression in stimulated whole human blood (ELISA); assay type: cell-based
Description: (§1) This example describes the general procedure used to assess the level of cytokine IL-6 and IL-12p40 expressions upon stimuli of whole human blood with small molecules or small molecules in liposomal formulations F1 and F2. 10 mM DMSO solutions of the small molecules were diluted in RPMI media (RPMI-1640, Sigma Aldrich) with 1% penicillin/streptomycin (p/s). […], of each dilution was transferred to Nunc™ 96-Well Polystyrene Conical Bottom MicroWell™ Plates in duplicates. Blood was drawn from two human donors, diluted in RPMI with 1% p/s and added to each well to reach final concentrations of 10 μM, 1 μM, and 0.1 μM of the small molecules. The plates were incubated at 37° C. in a cell incubator for 24h. The plates were then spun down in a plate centrifuge with 3200 revolutions per minute (rpm) for 10 min before 50 uL of the supernatant was transferred to new 96-well plates. The supernatant samples were subsequently stored at −80° C. until the day of cytokine measurements.
(§2) The level of cytokine expression was measured using either an IL-6 ELISA Kit (RnDSystems, cat #DY206) for IL-6, or an IL-12p40 ELISA Kit (RnDSystems, cat #DY1240) according to the manufacturer's protocols. This general procedure was used to generate the examples 24-33.

whole human blood [3] = test: IL-12p40 cytokine expression in stimulated whole human blood (ELISA); assay type: cell-based
Description: as §1, §2

RAW-Blue cells = test: NF-κB induction in RAW-Blue reporter cells (RAW 264.7 macrophages, SEAP); assay type: cell-based; details: for EC50: RAW-Blue, sigmoidal 4PL fitting, 24 h
Text: This example describes the general procedure used to assess the compounds' potency to induce NF-κB expression in RAW 264.7 macrophages cells that stably express secreted embryonic alkaline phosphatase (SEAP) upon induction of NF-κB. RAW-Blue™ reporter cells are commonly used for quantifying TLR7/8 agonist potencies in reporter cell assays. Conversely, we used RAW-Blue™ cells to evaluate the potencies of the synthesized derivatives, as previously reported^1. ^1 Ryu et al, J. Am. Chem. Soc. (2014), 136, 10823-10825
RAW 264.7 assays were carried out using RAW-Blue™ cells and QUANTI-Blue™ detection solution (Invivogen, Toulouse, France, at. #raw-sp and rep-qbs respectively). The assays carried out according to the protocol from Invivogen. RAW 264.7 macrophages were cultured in DMEM high glucose (4.5 g/L) supplemented with 10% (v/v) FBS, 1% (v/v) P/S, and Normocin™ (100 μg/ml). On the day of the study, the cells were seeded in a 96-well plate (ThermoFisher Scientific, Roskilde, Denmark) with 20 μL TLR7/8 agonist solutions per well at varying concentrations by adding 180 μL cell suspension, made by suspending cells to 0.55×10^6 cells per mL in the prepared cell medium added Zeocin™ (200 μg/ml), leading to a final concentration of 100×10^3 cells per well in triplicates. Cells were incubated with the TLR7/8 agonists, diluted from 10 mM DMSO stocks in PBS, at 37° C. with 5% CO2 for 24 h for SEAP production. 50 μL SEAP containing cell supernatant from each well was added 150 μL QUANTI-Blue™ detection solution and was incubated at 37° C. for 3-6 h. The resulting response was quantified spectrophotometrically at 640 nm and was normalized to the signal from a blank sample (DMSO dilution) run in parallel.
Half maximal effective concentration (EC50) values were determined from sigmoidal 4PL fittings from the resulting dose-response curves in GraphPad Prism.

[4] = formulation F1, HEPES, drug/lipid ratio 0.10, 1 h
[5] = formulation F1, HEPES, drug/lipid ratio 0.10, 3 h
[6] = formulation F2, HEPES, drug/lipid ratio 0.10, 1 h
[7] = formulation F2, HEPES, drug/lipid ratio 0.10, 3 h
[8] = remote loaded in formulation F1, HEPES, drug/lipid ratio 0.1
[9] = remote loaded in formulation F2, HEPES, drug/lipid ratio 0.1
[10] = free small molecule, 10, 1, 0.1 μM, 24 h, two donors

| SMILES | Remote loading efficiency 1 h (%) [1, 4] | Remote loading efficiency 3 h (%) [1, 5] | Remote loading efficiency 1 h (%) [1, 6] | Remote loading efficiency 3 h (%) [1, 7] | Expression of IL-6 upon stimulation of whole human blood (whole human blood [2]; [8]) | Expression of IL-6 upon stimulation of whole human blood (whole human blood [2]; [9]) | Expression of IL-12p40 upon stimulation of whole human blood (whole human blood [3]; [8]) | Expression of IL-12p40 upon stimulation of whole human blood (whole human blood [3]; [9]) | Expression of IL-6 upon stimulation of whole human blood (whole human blood [2]; [10]) | Expression of IL-12p40 upon stimulation of whole human blood (whole human blood [3]; [10]) | EC50 (RAW-Blue cells) | also measured |
| --- | --- | --- | --- | --- | --- | --- | --- | --- | --- | --- | --- | --- |
| CCOCc1nc2c(N)nc3ccccc3c2n1CCNC(=O)CN [MK087, 2-amino-N-(2-(4-amino-2-(ethoxymethyl)-1H-imidazo[4,5-c]quinolin-1-yl)ethyl)acetamide] | 72% | 73% | 52% | 60% | capable of inducing expression of IL-6 at 10 μM | capable of inducing expression of IL-6 at 10 μM; also recorded: not capable of inducing expression of IL-6 in donor 1 | none of the small molecules Gardiquimod, MK087, MK088, and MK089 were capable of inducing expression of IL-12p40 | not capable of inducing expression of IL-12p40 | – | – | – | – |
| CCOCc1nc2c(N)nc3ccccc3c2n1CCNC(=O)[C@H](C)N [MK088, (S)-2-amino-N-(2-(4-amino-2-(ethoxymethyl)-1H-imidazo[4,5-c]quinolin-1-yl)ethyl)propanamide] | 110% | 115% | 95% | 95% | capable of inducing expression of IL-6 at 10 μM | capable of inducing expression of IL-6 at 10 μM; also recorded: not capable of inducing expression of IL-6 in donor 1 | none of the small molecules Gardiquimod, MK087, MK088, and MK089 were capable of inducing expression of IL-12p40 | capable of inducing expression of IL-12p40 in one donor at 10 μM | induced expression of IL-6 at 10 μM in donor 2 | induced expression of IL-12p40 at 10 μM in donor 2; also recorded: the most potent inducer of IL-12p40 | – | – |
| CCOCc1nc2c(N)nc3ccccc3c2n1CCNC(=O)[C@@H](N)C(C)C [MK089, (S)-2-amino-N-(2-(4-amino-2-(ethoxymethyl)-1H-imidazo[4,5-c]quinolin-1-yl)ethyl)-3-methylbutanamide] | 122% | 128% | 100% | 104% | No induction of IL-6 expression | capable of inducing expression of IL-6 at 10 μM; also recorded: capable of inducing expression of IL-6 in both donors | none of the small molecules Gardiquimod, MK087, MK088, and MK089 were capable of inducing expression of IL-12p40 | capable of inducing expression of IL-12p40 in one donor at 10 μM | induced expression of IL-6 at 10 μM in donor 2 | – | – | – |
| CCOCc1nc2c(N)nc3ccccc3c2n1CCNC(=O)C(C)(C)N [MK090, 2-amino-N-(2-(4-amino-2-(ethoxymethyl)-1H-imidazo[4,5-c]quinolin-1-yl)ethyl)-2-methylpropanamide] | – | – | – | – | – | – | – | – | induced expression of IL-6 at 10 μM in donor 2; also recorded: able to induce expression of IL-6 in both donors; also recorded: the most potent inducer of IL-6 | induced expression of IL-12p40 at 10 μM in donor 2 | – | – |
| CCOCc1nc2c(N)nc3ccccc3c2n1CCNC(=O)[C@@H](N)CC(C)C [MK091, (S)-2-amino-N-(2-(4-amino-2-(ethoxymethyl)-1H-imidazo[4,5-c]quinolin-1-yl)ethyl)-4-methylpentanamide] | – | – | – | – | – | – | – | – | induced expression of IL-6 at 10 μM in donor 2 | induced expression of IL-12p40 at 10 μM in donor 2 | – | – |
| CCOCc1nc2c(N)nc3ccccc3c2n1CCNC(=O)[C@@H](N)CCSC [MK093, (S)-2-amino-N-(2-(4-amino-2-(ethoxymethyl)-1H-imidazo[4,5-c]quinolin-1-yl)ethyl)-4-(methylthio)butanamide] | – | – | – | – | – | – | – | – | induced expression of IL-6 at 10 μM in donor 2 | induced expression of IL-12p40 at 10 μM in donor 2 | – | – |
| CCCCc1nc2c(N)nc3ccccc3c2n1Cc1ccc(CNC(C)=O)cc1 [MK132, N-(4-((4-amino-2-butyl-1H-imidazo[4,5-c]quinolin-1-yl)methyl)benzyl)acetamide] | – | – | – | – | – | – | – | – | – | – | 120 nM | – |
| CCCCc1nc2c(N)nc3ccccc3c2n1Cc1ccc(CNC(=O)[C@@H](N)Cc2ccc(O)cc2)cc1 [MK141, (S)-2-amino-N-(4-((4-amino-2-butyl-1H-imidazo[4,5-c]quinolin-1-yl)methyl)benzyl)-3-(4-hydroxyphenyl)propanamide] | – | – | – | – | – | – | – | – | – | – | 130 nM | Remote loading efficiency 1 h (%) ([1]; formulation F3, drug/lipid ratio 0.10, 1 h, mean (SD), n = 2): 83.8 (3.0) %; Remote loading efficiency 3 h (%) ([1]; formulation F3, drug/lipid ratio 0.10, 3 h, mean (SD), n = 2): 81.2 (2.1) % |
| CCCCc1nc2c(N)nc3ccccc3c2n1Cc1ccc(CNC(=O)CC)cc1 [MK148, N-(4-((4-amino-2-butyl-1H-imidazo[4,5-c]quinolin-1-yl)methyl)benzyl)propionamide] | – | – | – | – | – | – | – | – | – | – | 50 nM | Potency in the RAW-Blue cell assay (RAW-Blue cells; compared with R848): greater potencies than R848 |
